Experimental findings from article PMC11480295, “Hypecotumines A-D, new isoquinoline alkaloids with potential PCSK9 inhibition activity from Hypecoum erectum L” (Natural Products and Bioprospecting, 2024) are described below.

As usually defined, the Kd is the free concentration of one partner at which half of the binding sites on the other are occupied at equilibrium, for simple one-to-one binding.

Sequence of PCSK9 (Q8NBP7 31-152): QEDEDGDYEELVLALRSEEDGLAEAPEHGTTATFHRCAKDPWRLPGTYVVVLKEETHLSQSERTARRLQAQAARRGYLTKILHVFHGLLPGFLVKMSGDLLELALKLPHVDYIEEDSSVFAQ
Sequence of PCSK9 (Q8NBP7 153-692): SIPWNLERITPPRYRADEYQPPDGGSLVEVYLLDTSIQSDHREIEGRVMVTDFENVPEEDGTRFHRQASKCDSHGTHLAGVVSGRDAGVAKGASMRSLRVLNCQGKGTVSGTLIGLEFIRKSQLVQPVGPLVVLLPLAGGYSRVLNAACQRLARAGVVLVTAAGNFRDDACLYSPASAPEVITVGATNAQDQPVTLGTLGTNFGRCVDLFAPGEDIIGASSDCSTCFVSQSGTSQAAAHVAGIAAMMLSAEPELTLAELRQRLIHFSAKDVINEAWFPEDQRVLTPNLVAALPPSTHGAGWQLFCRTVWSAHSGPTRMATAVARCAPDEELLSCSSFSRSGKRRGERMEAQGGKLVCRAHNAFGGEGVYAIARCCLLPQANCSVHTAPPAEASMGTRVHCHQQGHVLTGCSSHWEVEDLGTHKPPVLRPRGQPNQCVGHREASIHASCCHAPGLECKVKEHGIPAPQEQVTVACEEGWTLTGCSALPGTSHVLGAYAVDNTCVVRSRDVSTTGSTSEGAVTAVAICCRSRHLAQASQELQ

This assay addresses PCSK9 (Homo sapiens, UniProt Q8NBP7). Description: SPR (Biacore T200, PCSK9 immobilized on CM5 chip). Format: binding. For orientation: SPR reads the build-up and loss of mass on a sensor chip optically.
In turn, `C=C(C1=[N+](C)CCc2cc(OC)c(OC)cc21)c1ccc2c(c1C(=O)[O-])OCO2` [compound 3, Hypecotumine C] had a Kd of 95.1 µM.

With `C=C(C1=[N+](C)CCc2cc3c(cc21)OCO3)c1ccc2c(c1C(=O)[O-])OCO2` [compound 4, Hypecotumine D], the Kd is 59.9 µM.

Consider `C=C(C1=[N+](C)CCc2cc(OC)c(OC)cc21)c1ccc(OC)c(O)c1C(=O)[O-]` [compound 2, Hypecotumine B], for which the Kd is 248 µM.

On to `C=C(C1=[N+](C)CCc2cc3c(cc21)OCO3)c1ccc(OC)c(O)c1C(=O)[O-]` [compound 1, Hypecotumine A], for which binding was characterised by a dissociation constant (Kd) of 306 µM.
